Test results as given in US7402696B2, “Benzene compounds” (Ajinomoto Co., Inc., priority 2004, dated 2008).
Where two headings read alike, the source gives them in different places.

Target: T1, ACC (acetyl CoA carboxylase) purified from liver of male SD rat (Rattus norvegicus, UniProt P11497)
T1 construct: applied to a monomeric avidin sepharose column, and washed with buffer B. The ACC was eluted with buffer B containing 2 mM d-biotin; from tissue; host or cells: liver of male SD rat
Experiment: Measurement of ACC inhibition activity ([14C]-NaHCO3 incorporation)
Type: biochemical
Conditions: ACC inhibition activity rate at 1 μM, read-out: ACC Inhibition (%)
Outline: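 Enzyme was avidin-purified from livers of rats fasted and then sucrose-fed. Compounds were preincubated with ACC for 30 min at 37° C in Tris-HCl pH 7.5 with MgCl2, citrate and DTT. [14C]-NaHCO3 solution with 8 mM ATP and 0.5 mM acetyl CoA was added for 10 min at 37° C. Acid-stable 14C gave % inhibition at 1 μM.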

[1] = Table 4-IV, Mode 4 benzenediamine compounds (numbers = x-IV)
[2] = Table 2-III, Mode 3 acetylene/oxadiazole/thiazole compounds (numbers = x-III)

SMILES	inhibition at 1 µM [1] [%]	inhibition at 1 µM [2] [%]
CSc1ccccc1CNc1cc(-c2noc(-c3cccc(C(=O)NS(=O)(=O)c4ccccc4)c3)n2)ccc1N(C)CCC(C)C [compound 115]	100	
CC(C)c1ccc(S(=O)(=O)NC(=O)c2ccc3c(c2)CN(c2cccc(-c4csc(-c5ccccc5)n4)c2)C3)cc1 [compound 118]		60
Cc1ccccc1S(=O)(=O)NC(=O)CC(NC(=O)c1ccc(N(C)CCC(C)C)c(N(C)Cc2ccccc2)c1)C1CCCCC1 (stereo not shown) [compound 118]	93	
Cc1ccccc1S(=O)(=O)NC(=O)CC(NC(=O)c1ccc(N(C)CCC(C)C)c(N(C)CC2CCCCC2)c1)C1CCCCC1 (stereo not shown) [compound 119]	94	
CC(C)CCN(C)c1ccc(C(=O)NC(CC(=O)NS(=O)(=O)c2ccccc2)c2ccccc2)cc1N(C)Cc1ccccc1 (stereo not shown) [compound 121]	90	
Cc1ccccc1S(=O)(=O)NC(=O)CC(NC(=O)c1ccc(N(C)CCC(C)C)c(NCc2ccccc2O)c1)C1CCCCC1 (stereo not shown) [compound 122]	67	
Cc1ccccc1S(=O)(=O)NC(=O)CC(NC(=O)c1ccc(N(C)CCC(C)C)c(NCc2ccccc2[N+](=O)[O-])c1)C1CCCCC1 (stereo not shown) [compound 124]	64	
Cc1ccccc1S(=O)(=O)NC(=O)CC(NC(=O)c1ccc(N(C)CCC(C)C)c(NCCc2ccccc2)c1)C1CCCCC1 (stereo not shown) [compound 125]	98	
Cc1ccccc1S(=O)(=O)NC(=O)CC(NC(=O)c1ccc(N(C)CCC(C)C)c(NCC2CCCC2)c1)C1CCCCC1 (stereo not shown) [compound 126]	91	
Cc1ccccc1S(=O)(=O)NC(=O)c1cccc(-c2nc(-c3ccc(N(C)CCC(C)C)c(N4Cc5ccccc5C4=O)c3)no2)c1 [compound 127]	92	
Cc1ccccc1S(=O)(=O)NC(=O)c1cccc(-c2nc(-c3ccc(N(C)CCC(C)C)c(N4COc5ccccc5C4)c3)no2)c1 [compound 128]	100	
Cc1ccccc1S(=O)(=O)NC(=O)c1cccc(-c2nc(-c3ccc(N(C)CCC(C)C)c(NCc4ccccc4[N+](=O)[O-])c3)no2)c1 [compound 129]	100	
CC(C)c1ccc(S(=O)(=O)NC(=O)C(Cc2ccccc2)NC(=O)Nc2ccc(-c3csc(-c4ccccc4)n3)cc2)cc1 (stereo not shown) [compound 130]		88
